According to publication doi:10.1101/2025.07.21.666047v1 (biorxiv, 2025):

What was measured:
[1] = molecular target: CD28:B7.1 (immobilized CD28 and biotinylated B7.1) (Homo sapiens, UniProt P10747); assay: competitive ELISA, chemiluminescent; format: binding
[2] = molecular target: recombinant human CD28 protein (extracellular domain, His-tagged) (Homo sapiens, UniProt P10747); assay: spectral shift; format: binding
recombinant human CD28 protein (extracellular domain, His-tagged), sequence (P10747 19-152): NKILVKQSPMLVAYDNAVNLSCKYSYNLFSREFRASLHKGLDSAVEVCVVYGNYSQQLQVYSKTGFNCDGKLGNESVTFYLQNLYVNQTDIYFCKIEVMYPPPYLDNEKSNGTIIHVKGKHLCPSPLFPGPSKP

CD28:B7.1 (immobilized CD28 and biotinylated B7.1), sequence (P10747 19-152 limits assumed): as the sequence (P10747 19-152) above

IC50 [1] [µM]	Kd [2] [µM]	Structure (SMILES)
32.9 ± 5.74	43.3 ± 16.4	NC(=O)c1ccc(N2CCN(C(=O)c3ncc4n3CCCC4)CC2)cc1 [Z2770993038]
–	49.5 ± 15.3	COc1ccc(C2CC(C)N(CC(=O)NCC(F)(F)F)C2)cc1 (centres unmarked) [Z3889890124]
56.3 ± 11.2	45.8 ± 12.1	CC(C)OC1CCCN(C(=O)c2ccc(-c3nn[nH]n3)s2)C1 (centres unmarked) [Z4390463985]
